From US7947706B2, “Substituted pyrrolopyridines, compositions containing them, manufacturing process therefor and use thereof” (Sanofi-Aventis Deutschland GmbH, priority 2005, dated 2011)

Experiments:
TIE2 = molecular target: T1, TIE2 (Homo sapiens, UniProt Q02763); assay: Tie2 phosphorylation of PLC test (GST-Tie2, FlashPlate); assay type: biochemical; settings: GST-Tie2 intracellular domain 776-1124, GST-PLC substrate, 33P-ATP, one hour at 37° C.; read-out: IC 50 TIE2
T1 construct: amino acids of the intracellular domain 776-1124; made in house; host or cells: baculovirus expression (pFastBacGT)
T1 sequence (Q02763 776-1124): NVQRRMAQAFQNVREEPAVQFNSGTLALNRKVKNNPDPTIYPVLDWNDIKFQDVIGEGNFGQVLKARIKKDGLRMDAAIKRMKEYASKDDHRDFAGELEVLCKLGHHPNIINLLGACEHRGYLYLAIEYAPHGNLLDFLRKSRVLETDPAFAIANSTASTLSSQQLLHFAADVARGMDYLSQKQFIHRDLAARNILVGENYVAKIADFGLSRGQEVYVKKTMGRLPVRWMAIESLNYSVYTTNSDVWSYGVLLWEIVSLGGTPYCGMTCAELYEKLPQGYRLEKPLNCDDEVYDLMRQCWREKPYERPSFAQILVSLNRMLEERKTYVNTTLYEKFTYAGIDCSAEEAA
Procedure: The coding sequence of human Tie2 corresponding to the amino acids of the intracellular domain 776-1124 was generated by PCR using the cDNA isolated from a human placenta as a model. This sequence was introduced into a pFastBacGT baculovirus expression vector in the form of a GST fusion protein.
The inhibitory effect of the molecules is determined in a test of phosphorylation of PLC with Tie2 in the presence of GST-Tie2 purified to about 80% homogeneity. The substrate is composed of the SH2-SH3 fragments of PLC expressed in the form of a GST fusion protein.
The kinase activity of Tie2 is measured in a MOPS 20 mM pH 7.2 buffer, containing 10 mM MgCl2, 10 mM MnCl2, 1 mM DTT, 10 mM of glycerophosphate. In a 96-well FlashPlate plate maintained on ice, a reaction mixture is deposited, composed of 70 μL of kinase buffer containing 100 ng of enzyme GST-Tie2 per well. Next, 10 μL of the test molecule diluted in DMSO to a maximum concentration of 10% are added. For a given concentration, each measurement is performed four times. The reaction is initiated by adding 20 μl of solution containing 2 μg of GST-PLC, 2 μm of cold ATP and 1 μCi of ^33P[ATP]. After incubation for one hour at 37° C., the reaction is stopped by adding 1 volume (100 μl) of 200 mM EDTA. After removal of the incubation buffer, the wells are washed three times with 300 μL of PBS. The radioactivity is measured on a MicroBeta 1450 Wallac.
The inhibition of the Tie2 activity is calculated and expressed as a percentage of inhibition relative to the control activity determined in the absence of compound.

Aurora A = molecular target: T2, Aurora A (Homo sapiens, UniProt O14965); assay: Aurora2 (Aurora-A) enzymatic test, NuMA substrate phosphorylation, radioactivity detection; assay type: biochemical; settings: 10 nM Aurora2, 500 nM NuMA, 1 μM ATP, 30 minutes, 37° C.; read-out: IC 50 Aurora A
T2 construct: Aurora2: whole recombinant protein comprising an N-terminal histidine tail; His (N); made in house; host or cells: E. coli
T2 sequence (O14965 1-403): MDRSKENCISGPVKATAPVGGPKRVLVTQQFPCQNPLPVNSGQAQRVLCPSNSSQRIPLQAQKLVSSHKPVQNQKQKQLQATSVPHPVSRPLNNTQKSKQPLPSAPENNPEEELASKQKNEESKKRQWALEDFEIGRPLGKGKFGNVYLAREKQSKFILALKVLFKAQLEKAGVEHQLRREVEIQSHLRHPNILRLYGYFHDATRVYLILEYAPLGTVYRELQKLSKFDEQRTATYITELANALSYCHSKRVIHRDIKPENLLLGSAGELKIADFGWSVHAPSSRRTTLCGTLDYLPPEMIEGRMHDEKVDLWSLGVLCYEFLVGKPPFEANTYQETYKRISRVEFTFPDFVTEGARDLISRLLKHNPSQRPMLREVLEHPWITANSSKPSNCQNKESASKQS
Procedure: The inhibitory effect of compounds with respect to the kinases Aurora1 and Aurora2 is determined by means of an enzymatic test using radioactivity detection.
The kinase activity of Aurora1 and Aurora2 is evaluated via the phosphorylation of the substrate Numa-histidine in the presence of radiolabelled ATP ([^33P]ATP) using 96-well Flashplate plates in which the nickel chelate is bound to the surface of the microplate. The amount of ^33P phosphate incorporated into the NuMA substrate is proportional to the activity of the enzyme Aurora1 or Aurora2.
Aurora2: whole recombinant protein comprising an N-terminal histidine tail, was expressed in E. coli and purified to more than 82%.
NuMA (nuclear protein that combines with the mitotic apparatus): 424-amino acid fragment, expressed in E. coli, the N-terminal end of which has been labelled with histidine, and used as substrate for the two Aurora enzymes.
The microplates used are 96-well Flash-Plate plates, nickel chelate (Perkin-Elmer, model SMP107).
The products to be evaluated are incubated in a reaction volume of 100 μL per well, in the presence of 10 nM of Aurora1 or Aurora2, 500 nM of NuMA substrate in a buffer composed of 50 mM Tris/HCl (pH 7.5), 50 mM NaCl, 5 mM MgCl2 (Aurora-B) or 10 mM MgCl2 (Aurora-A) and 1 mM DTT, at 37° C.
80 μL of enzyme/substrate incubation buffer are distributed in each well, followed by 10 μL of product to be evaluated, at variable concentrations. The reaction is initiated by adding 1 μM final of ATP containing 0.2 μCi of [^33P]ATP (10 μL). After incubating for 30 minutes, the reaction is quenched by simple removal of the reaction buffer and each well is washed twice with 300 μl of Tris/HCl buffer. The radioactivity is then measured in each well using a Packard, Top-Count model scintillation machine.
The control enzymatic activity of Aurora is expressed by the number of counts per minute obtained over 30 minutes after subtracting the background noise (reaction mixture containing no enzyme). The evaluation of the various test products is expressed as a percentage of inhibition of the Aurora activity relative to the control.

IC50 (TIE2) [nM]	melting point [°C]	IC50 (Aurora A) [nM]	Structure (SMILES)
4	286	172	NC(=O)c1[nH]c2cnccc2c1-c1ccc(NC(=O)Nc2cc(C(F)(F)F)ccc2F)cc1 [Example 1, 3-{4-[3-(2-Fluoro-5-trifluoromethylphenyl)ureido]phenyl}-1H-pyrrolo[2,3-c]pyridine-2-carboxamide]
21	227	222	COc1ccc(C)cc1NC(=O)Nc1ccc(-c2c(C(N)=O)[nH]c3cnccc23)cc1 [Example 2, 3-{4-[3-(2-Methoxy-5-methylphenyl)ureido]phenyl}-1H-pyrrolo[2,3-c]pyridine-2-carboxamide]
47	222	131	Cc1ccc(F)c(NC(=O)Nc2ccc(-c3c(C(N)=O)[nH]c4cnccc34)cc2)c1.O=C(O)C(F)(F)F [Example 5, 3-{4-[3-(2-Fluoro-5-methylphenyl)ureido]phenyl}-1H-pyrrolo[2,3-c]pyridine-2-carboxamide trifluoroacetate]
9	232	553	NC(=O)c1[nH]c2ncccc2c1-c1ccc(NC(=O)Nc2cc(C(F)(F)F)ccc2F)cc1 [Example 7, 3-{4-[3-(2-Fluoro-5-trifluoromethylphenyl)ureido]phenyl}-1H-pyrrolo[2,3-b]pyridine-2-carboxamide]
